ChEMBL document CHEMBL6115027, “Bisboronic Ester-Enabled Redox-Targeted Cancer Therapy: A Cascade ROS Consumption Approach for Efficient Elimination of Cancer Cells” (J Med Chem, 2025)
The source made the active and inactive calls. The calls are words filed in the database; no cut-off is given here.

Tests used:
HeLa [1] = assay: Cytotoxicity against human HeLa cells assessed as reduction in cell viability incubated for 24 hrs by CCK-8 assay; format: functional, cell-based
[2] = Reactivity of compound assessed as consumption of H2O2 by measuring phenol intermediate formation after 1 hr relative to control; format: physicochemical
HeLa [3] = assay: Induction of pyroptosis in human HeLa cells at 10.88 to 43.52 uM; format: functional, cell-based; conditions: dose 10.88-43.52 µM
HeLa [4] = assay: Induction of apoptosis in human HeLa cells assessed as late apoptotic cells at 27.2 uM incubated for 48 hrs by Annexin V-Alexa fluor 647 and propidium iodide staining based flow cytometry relative to control; format: functional
HeLa [5] = assay: Induction of apoptosis in human HeLa cells assessed as necrotic cells at 27.2 uM incubated for 48 hrs by Annexin V-Alexa fluor 647 and propidium iodide staining based flow cytometry relative to control; format: functional
HeLa [6] = assay: Induction of apoptosis in human HeLa cells assessed as viable cells at 27.2 uM incubated for 48 hrs by Annexin V-Alexa fluor 647 and propidium iodide staining based flow cytometry relative to control; format: functional; conditions: read-out: Activity
HeLa [7] = assay: Induction of apoptosis in human HeLa cells assessed as viable cells at 13.6 uM incubated for 48 hrs by Annexin V-Alexa fluor 647 and propidium iodide staining based flow cytometry relative to control; format: functional; conditions: read-out: Activity
HeLa [8] = assay: Induction of autophagy in human HeLa cells assessed as change in caspase 1 activity at 87.04 uM incubated for 48 hrs by MDC staining based flow cytometric analysis (reference value: 0.06); format: functional
HeLa [9] = assay: Induction of apoptosis in human HeLa cells assessed as early apoptotic cells at 13.6 uM incubated for 48 hrs by Annexin V-Alexa fluor 647 and propidium iodide staining based flow cytometry relative to control; format: functional
HeLa [10] = assay: Induction of autophagy in human HeLa cells assessed as change in caspase 4 activity at 87.04 uM incubated for 48 hrs at wavelength of 405 nm by MDC staining based flow cytometric analysis (reference value: 0.052); format: functional
HeLa [11] = assay: Induction of autophagy in human HeLa cells assessed as change in caspase 1 activity at 43.52 uM incubated for 48 hrs by MDC staining based flow cytometric analysis (reference value: 0.06; format: functional
HeLa [12] = assay: Induction of autophagy in human HeLa cells assessed as change in caspase 4 activity at 21.76 uM incubated for 48 hrs at wavelength of 405 nm by MDC staining based flow cytometric analysis (reference value: 0.052); format: functional
HeLa [13] = assay: Induction of autophagy in human HeLa cells assessed as change in caspase 1 activity at 5.44 uM incubated for 48 hrs by MDC staining based flow cytometric analysis (reference value: 0.06); format: functional
T-24 = assay: Cytotoxicity against human T24 cells assessed as reduction in cell viability incubated for 24 hrs by CCK-8 assay; format: functional, cell-based; conditions: T-24, 24 h
HeLa [14] = assay: Induction of apoptosis in human HeLa cells assessed as necrotic cells at 6.8 uM incubated for 48 hrs by Annexin V-Alexa fluor 647 and propidium iodide staining based flow cytometry relative to control; format: functional
HeLa [15] = assay: Induction of autophagy in human HeLa cells assessed as change in caspase 4 activity at 10.88 uM incubated for 48 hrs at wavelength of 405 nm by MDC staining based flow cytometric analysis (reference value: 0.052); format: functional
HeLa [16] = assay: Induction of ROS generation in human HeLa cells assessed as increase in ROS level incubated for 1 to 36 hrs by DCFH-DA staining based confocal imaging analysis; format: functional, cell-based; conditions: time 1-36 hrs
HeLa [17] = assay: Induction of apoptosis in human HeLa cells assessed as late apoptotic cells at 13.6 uM incubated for 48 hrs by Annexin V-Alexa fluor 647 and propidium iodide staining based flow cytometry relative to control; format: functional
HeLa [18] = assay: Induction of apoptosis in human HeLa cells assessed as necrotic cells at 13.6 uM incubated for 48 hrs by Annexin V-Alexa fluor 647 and propidium iodide staining based flow cytometry relative to control; format: functional
HeLa [19] = assay: Induction of apoptosis in human HeLa cells assessed as viable cells at 6.8 uM incubated for 48 hrs by Annexin V-Alexa fluor 647 and propidium iodide staining based flow cytometry relative to control; format: functional; conditions: read-out: Activity
HeLa [20] = assay: Induction of apoptosis in human HeLa cells assessed as late apoptotic cells at 6.8 uM incubated for 48 hrs by Annexin V-Alexa fluor 647 and propidium iodide staining based flow cytometry relative to control; format: functional
HeLa [21] = assay: Induction of autophagy in human HeLa cells assessed as change in caspase 1 activity at 21.76 uM incubated for 48 hrs by MDC staining based flow cytometric analysis (reference value: 0.06); format: functional
HeLa [22] = assay: Induction of ROS generation in human HeLa cells assessed as increase in ROS level incubated for 48 hrs by DCFH-DA staining based confocal imaging analysis; format: functional, cell-based
HeLa [23] = assay: Induction of autophagy in human HeLa cells assessed as change in caspase 1 activity at 10.88 uM incubated for 48 hrs by MDC staining based flow cytometric analysis (reference value: 0.06); format: functional
HeLa [24] = assay: Induction of apoptosis in human HeLa cells assessed as early apoptotic cells at 27.2 uM incubated for 48 hrs by Annexin V-Alexa fluor 647 and propidium iodide staining based flow cytometry relative to control; format: functional
HeLa [25] = assay: Induction of autophagy in human HeLa cells assessed as change in caspase 4 activity at 5.44 uM incubated for 48 hrs at wavelength of 405 nm by MDC staining based flow cytometric analysis (reference value: 0.052); format: functional
HeLa [26] = assay: Induction of apoptosis in human HeLa cells assessed as early apoptotic cells at 6.8 uM incubated for 48 hrs by Annexin V-Alexa fluor 647 and propidium iodide staining based flow cytometry relative to control; format: functional
HeLa [27] = assay: Induction of autophagy in human HeLa cells assessed as change in caspase 4 activity at 43.52 uM incubated for 48 hrs at wavelength of 405 nm by MDC staining based flow cytometric analysis (reference value: 0.052); format: functional

CC1(C)COB(c2cccc(CCc3cccc(B4OCC(C)(C)CO4)c3)c2)OC1
IC50 (HeLa [1]): 3440 nM

CCC1(CC)OB(c2ccc(Cc3ccc(B4OC(C)(C)C(C)(C)O4)cc3)cc2)OC1(CC)CC
IC50 (HeLa [1]): 2110 nM

CC(C)(C)c1cc(B2OC(C)(C)C(C)(C)O2)cc(-c2cc(B3OC(C)(C)C(C)(C)O3)cc(C(C)(C)C)c2)c1
IC50 (HeLa [1]): 900 nM

CC1(C)OB(c2cc(C(=O)Oc3ccc(-c4ccccc4)cc3)cc(-c3cc(B4OC(C)(C)C(C)(C)O4)cc(C(=O)Oc4ccc(-c5ccccc5)cc4)c3)c2)OC1(C)C
IC50 (HeLa [1]): 700 nM

CC1(C)OB(c2ccc(-c3ccc(B4OC(C)(C)C(C)(C)O4)cc3)cc2)OC1(C)C
Activity [2]: 96% | IC50 (HeLa [1]): 1950 nM

CC1(C)OB(c2ccc(-c3ccc(B4OC(C)(C)C(C)(C)O4)c4ccccc34)c3ccccc23)OC1(C)C
IC50 (HeLa [1]): 690 nM

Cc1cc(B2OC(C)(C)C(C)(C)O2)cc(-c2cc(C)cc(B3OC(C)(C)C(C)(C)O3)c2)c1
IC50 (HeLa [1]): 790 nM

CC1(C)COB(c2ccc(CCc3ccc(B4OCC(C)(C)CO4)cc3)cc2)OC1
IC50 (HeLa [1]): 870 nM

CC1(C)OB(c2ccc(F)c(CCc3cc(B4OC(C)(C)C(C)(C)O4)ccc3F)c2)OC1(C)C
Activity (HeLa [3]): Active | Activity (HeLa [4]): 0.63% | Activity (HeLa [5]): 1.41% | viability at 27.2 µM (HeLa [6]): 93.7% | viability at 13.6 µM (HeLa [7]): 95.6% | OD (HeLa [8]): 0.062 | Activity (HeLa [9]): 2.44% | OD (HeLa [10]): 0.051 | OD (HeLa [11]): 0.061 | OD (HeLa [12]): 0.051 | OD (HeLa [13]): 0.058 | IC50 (T-24): 1140 nM | Activity (HeLa [14]): 0.38% | OD (HeLa [15]): 0.053 | Activity (HeLa [16]): inactive | Activity (HeLa [17]): 0.41% | Activity (HeLa [18]): 1.54% | viability at 6.8 µM (HeLa [19]): 96.1% | Activity (HeLa [20]): 0.073% | OD (HeLa [21]): 0.06 | Activity (HeLa [22]): Active | OD (HeLa [23]): 0.062 | Activity (HeLa [24]): 4.28% | OD (HeLa [25]): 0.052 | Activity (HeLa [26]): 1.43% | IC50 (HeLa [1]): 680 nM | OD (HeLa [27]): 0.051

CC1(C)OB(c2cc(C(=O)Oc3ccc4c(c3)OCO4)cc(-c3cc(B4OC(C)(C)C(C)(C)O4)cc(C(=O)Oc4ccc5c(c4)OCO5)c3)c2)OC1(C)C
IC50 (HeLa [1]): 1000 nM

CC1(C)OB(c2ccc(-c3ccc(B4OC(C)(C)C(C)(C)O4)c(F)c3)cc2F)OC1(C)C
IC50 (HeLa [1]): 2600 nM

CC1(C)OB(c2ccc(-c3ccc(-c4ccc(-c5ccc(B6OC(C)(C)C(C)(C)O6)cc5)cc4)cc3)cc2)OC1(C)C
IC50 (HeLa [1]): 2270 nM

CC1(C)OB(c2ccc(Cc3ccc(B4OC(C)(C)C(C)(C)O4)c4ccccc34)cc2)OC1(C)C
IC50 (HeLa [1]): 630 nM

CC1(C)OB(c2ccc(CCc3ccc(B4OC(C)(C)C(C)(C)O4)c4ccccc34)c3ccccc23)OC1(C)C
IC50 (HeLa [1]): 3440 nM

COc1ccc(-c2ccc(OC)c(B3OC(C)(C)C(C)(C)O3)c2)cc1B1OC(C)(C)C(C)(C)O1
IC50 (HeLa [1]): 830 nM

CC1(C)OB(c2ccc(Cc3ccc(B4OC(C)(C)C(C)(C)O4)cc3)cc2)OC1(C)C
IC50 (HeLa [1]): 3150 nM

CC1(C)OB(c2ccc(CCc3ccc(B4OC(C)(C)C(C)(C)O4)cc3)cc2)OC1(C)C
IC50 (HeLa [1]): 710 nM

CC1(C)OB(c2cc(F)ccc2CCc2ccc(F)cc2B2OC(C)(C)C(C)(C)O2)OC1(C)C
IC50 (HeLa [1]): 1800 nM

CC1(C)OB(c2cccc(CCc3cccc(B4OC(C)(C)C(C)(C)O4)c3F)c2F)OC1(C)C
IC50 (HeLa [1]): 11800 nM

CC1(C)OB(c2cc(C(F)(F)F)ccc2CCc2ccc(C(F)(F)F)cc2B2OC(C)(C)C(C)(C)O2)OC1(C)C
IC50 (HeLa [1]): 700 nM
